One compound from US11590118B2, “Methods and compositions for treating retina-associated disease using CCR3-inhibitors” (ALKAHEST INC., priority 2017, dated 2023) can be followed below.

Test [1] has as its target T1, human CCR3 (Homo sapiens, UniProt P51677).
T1 sequence (P51677 1-355): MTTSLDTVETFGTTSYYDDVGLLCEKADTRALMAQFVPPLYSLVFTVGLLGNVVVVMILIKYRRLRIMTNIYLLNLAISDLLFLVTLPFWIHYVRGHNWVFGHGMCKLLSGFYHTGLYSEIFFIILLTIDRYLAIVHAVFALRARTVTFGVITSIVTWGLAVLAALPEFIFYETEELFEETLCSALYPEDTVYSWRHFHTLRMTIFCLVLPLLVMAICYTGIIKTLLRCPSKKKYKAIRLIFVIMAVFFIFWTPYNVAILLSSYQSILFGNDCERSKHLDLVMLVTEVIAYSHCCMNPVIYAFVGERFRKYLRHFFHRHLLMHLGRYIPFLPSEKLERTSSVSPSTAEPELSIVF
Briefly: human eotaxin-1 induced eosinophil shape change in human whole blood. Format: cell-based. The settings on record: read-out: IC50, antagonism of human eotaxin-1 induced eosinophil shape change. The method, then: (§1) The antagonistic potency of the investigational product of the invention was determined in several human CCR3-dependent assays (FIG. 1). […] IC50 for a calcium influx assay using human CCR3-transfected CHEM1-Gα15 cells was determined to be 0.9±0.2 nM.

The target of the next test is T2, rat CCR3 (Rattus norvegicus, UniProt O54814).
T2 sequence (O54814 1-359): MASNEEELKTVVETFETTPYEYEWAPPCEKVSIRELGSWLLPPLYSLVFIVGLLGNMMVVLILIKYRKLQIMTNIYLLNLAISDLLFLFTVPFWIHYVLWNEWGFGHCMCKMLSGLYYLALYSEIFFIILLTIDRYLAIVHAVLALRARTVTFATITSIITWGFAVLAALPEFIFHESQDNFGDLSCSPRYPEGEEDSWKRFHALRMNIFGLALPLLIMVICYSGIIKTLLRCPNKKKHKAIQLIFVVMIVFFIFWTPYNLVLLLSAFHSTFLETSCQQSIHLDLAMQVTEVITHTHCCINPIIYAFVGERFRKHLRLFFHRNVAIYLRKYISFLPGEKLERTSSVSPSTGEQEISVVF
The test is described as follows: receptor binding assay, rat CCR3. Here is the method: (§2) Potencies for several other mammalian species were also determined in different assays. Species included cynomolgus (macaque) monkeys, mouse, rat, and canines.

For test [2], the target named is T1, human CCR3. Briefly: calcium influx assay using human CCR3-transfected CHEM1-Gα15 cells. Format: cell-based. Here is the method:
as §1

Test [3] deals with T1, human CCR3. The test is described as follows: receptor binding assay, human CCR3. Here is the method: as §1
Test [4] has as its system subfoveal CNV secondary to wAMD. The test is described as follows: single-arm, open-label clinical study in treatment-naïve wAMD patients, 4 week regimen. Format: in vivo, human. The settings on record: 400 mg orally twice daily for 4 weeks. The method, then:
Patients with newly diagnosed (e.g. treatment-naïve) subfoveal CNV that was secondary to wAMD were entered into a single-arm, open-label study. Patients orally took 400 mg of the investigational drug of the invention b.o.d. (twice daily) for 4 weeks and had weekly scheduled visits with the physician. The regimen called for […]. After the end of treatment (EoT) or on withdrawal from the study medication, eligible patients could receive standard of care therapy (anti-VEGF therapy). Patients were followed up twice within 4 weeks after EoT. FIG. 2 is a depiction of the clinical trial design. Boxes V1, V2, V3, V4, and V5 indicate patient visits 1 through 5, respectively. Gaps between the boxes indicate the time in days between visits. The box labeled EoT indicates visit 6, or the end of treatment. Visits 7 and 8 occurred during the follow-up (FU) visits.
The primary endpoint was the change from baseline in central retinal thickness (CRT) as determined by spectral domain optical coherence tomography (SD-OCT) on day 29 (visit no. 6). For all primary and secondary endpoints, the value of the last assessment before first intake of study medication was used as the baseline on day 1 (visit no. 2).
CRT was reported as mean (SEM) in units of μm and time as visit number. The retinal layers and thickness was visualized and measured by SD-OCT, and to those having ordinary of skill in the art and trained using OCT equipment, visualization and measurement of the retinal layers involve well-known techniques. […]
The retinal vasculature of the study eye was evaluated via fluorescein angiography (FA). The change in neovascular leakage by FA was determined on Day 29 (visit 6) compared to baseline. […] N is the number of patients evaluated.
Visual acuity was determined using ETDRS charts over time of treatment. The absolute change in numbers of letters read by patients from their baseline levels was evaluated during visits. […]

A further test concerns the target T3, mouse CCR3 (Mus musculus, UniProt P51678).
T3 sequence (P51678 1-359): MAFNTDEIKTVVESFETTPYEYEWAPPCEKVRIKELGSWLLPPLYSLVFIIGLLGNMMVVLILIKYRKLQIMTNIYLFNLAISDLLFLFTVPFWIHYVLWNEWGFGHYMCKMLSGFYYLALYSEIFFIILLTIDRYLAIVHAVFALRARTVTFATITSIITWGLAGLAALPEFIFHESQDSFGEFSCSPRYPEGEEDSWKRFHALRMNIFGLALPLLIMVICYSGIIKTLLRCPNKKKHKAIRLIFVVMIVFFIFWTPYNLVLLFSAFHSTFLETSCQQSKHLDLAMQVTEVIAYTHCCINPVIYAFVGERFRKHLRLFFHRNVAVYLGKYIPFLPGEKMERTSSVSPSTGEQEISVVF
The test is described as follows: receptor binding assay, mouse CCR3. Here is the method: as §2

Molecules are shown by their SMILES.

As to `Cc1cc(C(=O)N(C)C)cc(NC(=O)[C@H]2CCC(=O)N2C2CCN(Cc3ccc(Cl)c(C)c3)CC2)n1` [investigational product of the invention], the IC50 (in general, the point on the concentration scale where inhibition reaches its midpoint) turned out to be 42.5 ± 43.5 nM on human CCR3 [1]; 1720 ± 130 nM on rat CCR3; 0.9 ± 0.2 nM at human CCR3 [2]; 4 ± 1.8 nM on human CCR3 [3]; 87.3 ± 5.6 nM at mouse CCR3. Moreover, the figures for the Ki at rat CCR3, on human CCR3 [3] and on mouse CCR3 were 1490 ± 128 nM, 3.2 ± 0.6 nM and 124.3 ± 0.9 nM, respectively. Further, in test [4] (median or mean CRT through the treatment phase), the “change from baseline in central retinal thickness (CRT) by SD-OCT” value is on record as “no significant change from baseline”. Further, the “change from baseline in neovascular leakage by fluorescein angiography” value in test [4] (median or mean values through the treatment phase) was “no significant change from baseline”. Further, the “best corrected visual acuity (BCVA), change in letters read, ETDRS charts” value in test [4] (subset of 8 out of 14 patients, compared to sham control and the larger patient group) is “significant improvement”.
